Reference: patent US10150728B2, “Alkylene derivatives” (Shionogi & Co., Ltd., priority 2013, dated 2018)

Target: recombinant human ACC2 (Homo sapiens (Human), UniProt O00763)
Assay: Measurement of inhibitory activity on human ACC2 (MALDI-TOF MS, acetyl CoA to malonyl CoA conversion)
Format: biochemical
Conditions: Tables 155-159
From the text: Preparation 1: Preparation of Recombinant Human ACC2
After a cDNA encoding human ACC2 (27 amino acid residue to 2458 amino acid residues from the N-terminus) was cloned from human kidney cDNA library (Clontech), human ACC2 gene containing His-tag sequence at 5′ terminus was inserted into pFastBac1 (Invitrogen). Recombinant baculovirus was generated using Bac-to-Bac baculovirus expression system (Invitrogen) according to the manufacturer's protocol. To express human ACC2, Sf-9 cells were infected with recombinant baculovirus. After infected cells were disrupted, the filtrated lysate was subjected to Ni-affinity chromatography and anion-exchange chromatography. The fractions containing human ACC2 protein were pooled as recombinant human ACC2 solution.
The Measurement of Inhibitory Activity on Human ACC1 and the ACC2
Recombinant human ACC1 and recombinant human ACC2, which were prepared by the method mentioned above, were preincubated with assay buffer solution (50 mM HEPES-KOH (pH 7.4), 10 mM magnesium chloride, 6-10 mM potassium citrate, 4 mM reduced form of glutathione, 1.5 mg/ml bovine serum albumin) for one hour. Then, 0.2 μL of each this invention compound solution (in DMSO) were dispensed to 384-well microplate, 5 μL of the preincubated enzyme solution and 5 μL of substrate solution (50 mM HEPES-KOH (pH 7.4), 1 mM ATP, 0.8 mM acetyl CoA and 25-50 mM potassium bicarbonate) were added to microplate. After centrifugation and shaking, the reaction mixtures were incubated in a humidified box at room temperature for 1 to 3 hours. After the incubation, the enzyme reactions were stopped by the addition of EDTA. Then, after the samples were cocrystallized with CHCA (α-cyano-4-hydroxy cinnamic acid) matrices on MALDI target plate, by using the matrix assist laser […] time-of-flight mass spectrometer (MALDI-TOF MS), samples were measured in reflector negative mode. Deprotonated ions of acetyl CoA (AcCoA) of substrate and malonyl CoA (MalCoA) of the reaction product were detected, then, the conversion rates of acetyl CoA to malonyl CoA was calculated by the intensity of [MalCoA-H]−/(Intensity of [MalCoA-H]−+Intensity of [AcCoA-H]−) using each signal strength. […] In addition, potassium citrate concentrations in assay buffer solution, potassium hydrogen carbonate concentrations in substrate solution and incubation time were adjusted by each lot of enzyme.

recombinant human ACC2, sequence (O00763 27-2458): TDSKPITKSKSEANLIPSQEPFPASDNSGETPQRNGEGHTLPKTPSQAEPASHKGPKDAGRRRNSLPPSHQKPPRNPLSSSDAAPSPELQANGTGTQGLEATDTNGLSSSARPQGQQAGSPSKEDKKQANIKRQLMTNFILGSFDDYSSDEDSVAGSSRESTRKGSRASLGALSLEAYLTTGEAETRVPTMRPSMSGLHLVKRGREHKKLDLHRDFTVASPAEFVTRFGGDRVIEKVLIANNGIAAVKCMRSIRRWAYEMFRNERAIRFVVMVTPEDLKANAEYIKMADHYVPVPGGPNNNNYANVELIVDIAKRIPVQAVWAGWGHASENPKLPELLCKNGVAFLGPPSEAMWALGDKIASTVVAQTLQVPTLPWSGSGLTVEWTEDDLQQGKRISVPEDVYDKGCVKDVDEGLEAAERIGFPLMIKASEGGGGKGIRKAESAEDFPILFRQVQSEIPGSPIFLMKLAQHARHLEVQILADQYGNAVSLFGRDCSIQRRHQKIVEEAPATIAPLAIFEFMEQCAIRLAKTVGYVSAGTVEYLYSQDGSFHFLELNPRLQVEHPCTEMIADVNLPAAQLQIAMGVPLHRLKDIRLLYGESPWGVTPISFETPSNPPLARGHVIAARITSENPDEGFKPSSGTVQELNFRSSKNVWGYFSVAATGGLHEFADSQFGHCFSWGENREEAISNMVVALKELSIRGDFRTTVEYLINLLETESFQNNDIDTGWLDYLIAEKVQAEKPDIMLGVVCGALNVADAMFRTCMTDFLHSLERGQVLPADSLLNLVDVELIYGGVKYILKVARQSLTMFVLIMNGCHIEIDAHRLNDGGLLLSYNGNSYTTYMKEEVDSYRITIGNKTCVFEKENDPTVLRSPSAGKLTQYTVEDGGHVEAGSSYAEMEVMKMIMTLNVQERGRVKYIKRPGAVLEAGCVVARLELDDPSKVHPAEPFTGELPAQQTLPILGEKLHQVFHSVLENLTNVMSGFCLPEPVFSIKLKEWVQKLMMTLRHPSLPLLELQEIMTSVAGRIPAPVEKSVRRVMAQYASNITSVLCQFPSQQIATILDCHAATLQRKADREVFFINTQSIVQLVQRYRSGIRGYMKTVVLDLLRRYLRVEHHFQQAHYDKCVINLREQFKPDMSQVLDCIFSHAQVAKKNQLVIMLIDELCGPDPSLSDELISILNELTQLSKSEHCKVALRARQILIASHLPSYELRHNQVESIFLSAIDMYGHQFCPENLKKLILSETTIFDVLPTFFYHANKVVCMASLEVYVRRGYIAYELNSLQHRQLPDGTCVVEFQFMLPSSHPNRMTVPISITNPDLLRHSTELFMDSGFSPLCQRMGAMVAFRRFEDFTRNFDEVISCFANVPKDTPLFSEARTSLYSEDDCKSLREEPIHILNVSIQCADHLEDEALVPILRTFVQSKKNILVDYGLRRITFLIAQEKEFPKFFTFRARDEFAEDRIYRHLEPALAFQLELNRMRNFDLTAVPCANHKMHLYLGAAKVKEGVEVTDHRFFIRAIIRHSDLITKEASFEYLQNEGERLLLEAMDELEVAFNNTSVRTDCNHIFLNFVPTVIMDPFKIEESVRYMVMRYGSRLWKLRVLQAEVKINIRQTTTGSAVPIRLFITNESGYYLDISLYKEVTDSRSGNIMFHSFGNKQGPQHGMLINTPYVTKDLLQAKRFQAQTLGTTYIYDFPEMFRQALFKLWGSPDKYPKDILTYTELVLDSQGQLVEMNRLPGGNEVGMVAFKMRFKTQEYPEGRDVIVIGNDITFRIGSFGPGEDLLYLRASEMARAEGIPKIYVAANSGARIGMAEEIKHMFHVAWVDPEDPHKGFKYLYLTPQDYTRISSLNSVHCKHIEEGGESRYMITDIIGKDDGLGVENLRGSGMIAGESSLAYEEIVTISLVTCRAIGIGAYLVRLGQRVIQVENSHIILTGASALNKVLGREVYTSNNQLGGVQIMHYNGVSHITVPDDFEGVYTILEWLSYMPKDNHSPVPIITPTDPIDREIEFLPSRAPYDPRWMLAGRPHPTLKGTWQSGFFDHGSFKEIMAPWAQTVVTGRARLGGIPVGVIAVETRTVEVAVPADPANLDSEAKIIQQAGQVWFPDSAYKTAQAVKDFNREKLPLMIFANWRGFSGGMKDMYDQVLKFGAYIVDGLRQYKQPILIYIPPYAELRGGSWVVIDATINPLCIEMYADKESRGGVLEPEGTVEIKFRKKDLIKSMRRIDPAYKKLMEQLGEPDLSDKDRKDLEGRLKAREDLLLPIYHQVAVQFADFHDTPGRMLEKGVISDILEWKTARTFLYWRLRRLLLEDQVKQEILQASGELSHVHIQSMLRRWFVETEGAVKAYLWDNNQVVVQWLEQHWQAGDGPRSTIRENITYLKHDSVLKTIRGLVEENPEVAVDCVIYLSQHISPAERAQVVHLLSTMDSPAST

Row | Compound | IC50
1 | CC(=O)N[C@@H](C)CO[C@H]1C[C@H](COc2ccc3nc(OCC(F)F)sc3c2F)C1 [Compound I-151] | 75 nM
2 | CC(=O)N[C@@H](C)CO[C@H]1C[C@H](COc2ccc3nc(OCC(F)(F)F)sc3c2F)C1 [Compound I-152] | 64 nM
3 | CC(=O)N[C@@H](C)CO[C@H]1C[C@H](COc2ccc3nc(OC(C)C)sc3c2F)C1 [Compound I-153] | 43 nM
4 | CC(=O)N[C@@H](C)CO[C@H]1C[C@H](COc2ccc3nc(OC4CCC4)sc3c2F)C1 [Compound I-155] | 25 nM
5 | CC(=O)N[C@@H](C)CO[C@H]1C[C@H](COc2ccc3nc(Oc4ccc(F)cc4)sc3c2F)C1 [Compound I-156] | 12 nM
6 | CCOc1nc2ccc(OC[C@H]3C[C@H](OC[C@H](C)NC(C)=O)C3)nc2s1 [Compound I-157] | 3 nM
7 | CC(=O)N[C@@H](C)CO[C@H]1C[C@H](COc2cc3sc(C(C)(C)O)nc3cc2F)C1 [Compound I-159] | 641 nM
8 | CCOc1nc2cc(F)c(OC[C@H]3C[C@H](OC[C@H](C)NC(C)=O)C3)nc2s1 [Compound I-165] | 7 nM
9 | CC(=O)N[C@@H](C)CO[C@H]1C[C@H](COc2ccc3nc(OCC(F)(F)F)sc3n2)C1 [Compound I-170] | 6 nM
10 | CC(=O)N[C@@H](C)CO[C@H]1C[C@H](COc2ccc3nc(C(C)(C)O)sc3n2)C1 [Compound I-171] | 152 nM
11 | CC(=O)N[C@@H](C)CO[C@H]1C[C@H](COc2ccc3nc(OC4CC4)sc3n2)C1 [Compound I-172] | 13 nM
12 | CC(=O)N[C@@H](C)CO[C@H]1C[C@H](COc2ccc3nc(OC(C)C)sc3n2)C1 [Compound I-173] | 5 nM
13 | CC(=O)N[C@@H](C)CO[C@H]1C[C@](F)(COc2cc3sc(C(C)C)nc3cn2)C1 [Compound I-174] | 931 nM
14 | CC(=O)N[C@@H](C)CO[C@H]1CC[C@H](Oc2ccc3nc(N4CC(F)(F)C4)sc3c2F)CC1 [Compound I-175] | 11 nM
15 | CC(=O)N[C@@H](C)CO[C@H]1CC[C@H](Oc2ccc3nc(N4CCOCC4)sc3c2F)CC1 [Compound I-176] | 42 nM
16 | CCOc1nc2ccc(O[C@H]3CC[C@H](OC[C@H](C)NC(C)=O)CC3)cc2s1 [Compound I-177] | 6 nM
17 | CCOc1nc2ccc(O[C@H]3CC[C@H](OC[C@H](C)NC(C)=O)CC3)nc2s1 [Compound I-178] | 3 nM
18 | CC(=O)N[C@@H](C)CO[C@H]1C[C@H](COc2nc3sc(OCC(F)F)nc3cc2F)C1 [Compound I-180] | 21 nM
19 | CC(=O)N[C@@H](C)CO[C@H]1C[C@H](COc2nc3sc(OCC(F)(F)F)nc3cc2F)C1 [Compound I-181] | 14 nM
20 | CC(=O)N[C@@H](C)CO[C@H]1CC[C@H](Oc2cc3sc(OCC(F)(F)F)nc3cn2)CC1 [Compound I-184] | 54 nM
21 | CC(=O)N[C@@H](C)CO[C@H]1C[C@H](COc2ccc3nc(OCC4(F)COC4)sc3n2)C1 [Compound I-195] | 28 nM
22 | CC(=O)N[C@@H](C)CO[C@H]1C[C@H](COc2ccc3nc(OCC4CC4(F)F)sc3n2)C1 (some centres unmarked) [Compound I-197] | 15 nM
23 | CC(=O)N[C@@H](C)CO[C@H]1CC[C@H](Oc2ccc3nc(N4CC(F)(F)C4)sc3n2)CC1 [Compound I-208] | 8 nM
24 | CCOc1nc2cnc(O[C@H]3CC[C@H](OC[C@H](C)NC(C)=O)CC3)c(F)c2s1 [Compound I-210] | 6 nM
25 | CC(=O)N[C@@H](C)CO[C@H]1C[C@H](COc2ccc3nc(OCC4(C)COC4)sc3n2)C1 [Compound I-211] | 97 nM
26 | CCOc1nc2cc(Cl)c(OC[C@H]3C[C@H](OC[C@H](C)NC(C)=O)C3)nc2s1 [Compound I-212] | 17 nM

More lines, in order of falling IC50, values ahead:

Row | IC50 | Compound
27 | 809 nM | CC(=O)N[C@@H](C)CO[C@H]1C[C@](F)(COc2ccc3nc(C(C)(C)O)sc3c2F)C1 [Compound I-160]
28 | 234 nM | CC(=O)N[C@@H](C)CO[C@H]1CC[C@H](Oc2ccc3nc(N4CC(C)(O)C4)sc3c2F)CC1 [Compound I-187]
29 | 146 nM | CC(=O)N[C@@H](C)CO[C@H]1CC[C@H](Oc2ccc3nc(O[C@H]4C[C@H](C#N)C4)sc3c2F)CC1 [Compound I-161]
30 | 121 nM | CC(=O)N[C@@H](C)CO[C@H]1C[C@H](COc2ccc3nc(OCC4CCO4)sc3n2)C1 (some centres unmarked) [Compound I-199]
31 | 113 nM | CC(=O)N[C@@H](C)CO[C@H]1C[C@](F)(COc2ccc3nc(Oc4ccc(F)cc4)sc3n2)C1 [Compound I-204]
32 | 95 nM | CC(=O)N[C@@H](C)CO[C@H]1CC[C@H](Oc2cc3sc(OC(C)CF)nc3cc2Cl)CC1 (some centres unmarked) [Compound I-168]
33 | 79 nM | C[C@@H](CO[C@H]1C[C@H](COc2ccc3nc(OCC(F)F)sc3n2)C1)NC(=O)O [Compound I-206]
34 | 74 nM | CC(=O)N[C@@H](C)CO[C@H]1CC[C@H](Oc2ccc3nc(O[C@H]4C[C@@H](C#N)C4)sc3c2F)CC1 [Compound I-162]
35 | 73 nM | CCN(C)c1nc2ccc(O[C@H]3CC[C@H](OC[C@H](C)NC(C)=O)CC3)c(F)c2s1 [Compound I-190]
36 | 66 nM | CC(=O)N[C@@H](C)CO[C@H]1C[C@](F)(COc2ccc3nc(OC(C)CF)sc3n2)C1 (some centres unmarked) [Compound I-202]
37 | 61 nM | CC(=O)N[C@@H](C)CO[C@H]1C[C@H](COc2ccc3nc(OCC4(C#N)CC4)sc3n2)C1 [Compound I-192]
38 | 59 nM | CC(=O)N[C@@H](C)CO[C@H]1CC[C@H](Oc2ccc3nc(N4CC(C)(C)C4)sc3c2F)CC1 [Compound I-167]
39 | 48 nM | C[C@@H](CO[C@H]1CC[C@H](Oc2ccc3nc(C(C)(F)F)sc3c2F)CC1)NC(N)=O [Compound I-158]
40 | 48 nM | CC(=O)N[C@@H](C)CO[C@H]1C[C@](F)(COc2ccc3nc(OCC(C)(F)F)sc3n2)C1 [Compound I-203]
41 | 44 nM | CC(=O)N[C@@H](C)CO[C@H]1CC[C@H](Oc2cc3sc(OCC(F)F)nc3cn2)CC1 [Compound I-185]
42 | 41 nM | CC(=O)N[C@@H](C)CO[C@H]1CC[C@H](Oc2ccc3nc(N4CCC(F)(F)CC4)sc3c2F)CC1 [Compound I-188]
43 | 39 nM | CCOc1nc2ccc(OC[C@]3(F)C[C@@H](OC[C@H](C)NC(C)=O)C3)nc2s1 [Compound I-163]
44 | 39 nM | CCOc1nc2cc(F)c(OC[C@]3(F)C[C@@H](OC[C@H](C)NC(C)=O)C3)nc2s1 [Compound I-164]

Row | IC50 | Compound
45 | 30 nM | C[C@@H](CO[C@H]1CC[C@H](Oc2ccc3nc(C(C)(F)F)sc3c2F)CC1)NC(=O)C1COC1 [Compound I-166]
46 | 30 nM | CC(=O)N[C@@H](C)CO[C@H]1C[C@H](COc2ccc3nc(OC4(C)CC4)sc3n2)C1 [Compound I-200]
47 | 28 nM | CCOc1nc2cnc(O[C@H]3CC[C@H](OC[C@H](C)NC(C)=O)CC3)cc2s1 [Compound I-179]
48 | 27 nM | CC(=O)N[C@@H](C)CO[C@H]1CC[C@H](Oc2ccc3nc(N4CCC(F)(F)C4)sc3c2F)CC1 [Compound I-189]
49 | 25 nM | C[C@@H](CO[C@H]1C[C@H](COc2ccc3nc(OCC(F)F)sc3n2)C1)NC(N)=O [Compound I-205]
50 | 17 nM | CC(=O)N[C@@H](C)CO[C@H]1C[C@H](COc2ccc3nc(OC4CC4)sc3c2F)C1 [Compound I-154]
51 | 17 nM | CC(=O)N[C@@H](C)CO[C@H]1CC[C@](F)(COc2ccc3nc(OCC4CC4)sc3n2)CC1 [Compound I-201]
52 | 14 nM | CC(=O)N[C@@H](C)CO[C@H]1CC[C@H](Oc2cc3sc(OCC4CC4)nc3cn2)CC1 [Compound I-183]
53 | 12 nM | CC(=O)N[C@@H](C)CO[C@H]1C[C@H](COc2nc3sc(OC(C)C)nc3cc2F)C1 [Compound I-182]
54 | 12 nM | CC(=O)N[C@@H](C)CO[C@H]1C[C@H](COc2ccc3nc(OC[C@H](C)F)sc3n2)C1 [Compound I-191]
55 | 12 nM | CC(=O)N[C@@H](C)CO[C@H]1C[C@H](COc2ccc3nc(OCC(C)(F)F)sc3n2)C1 [Compound I-193]
56 | 12 nM | CC(=O)N[C@@H](C)CO[C@H]1C[C@H](COc2ccc3nc(OC(C)CF)sc3n2)C1 (some centres unmarked) [Compound I-194]
57 | 12 nM | CC(=O)N[C@@H](C)CO[C@H]1C[C@H](COc2ccc3nc(OCC(C)C)sc3n2)C1 [Compound I-196]
58 | 12 nM | CC(=O)N[C@@H](C)CO[C@H]1CC[C@H](Oc2ccc3nc(OC(C)C)sc3n2)CC1 [Compound I-209]
59 | 11 nM | C[C@@H](CO[C@H]1C[C@H](COc2ccc3nc(OCC(F)F)sc3n2)C1)NC(=O)C(F)(F)F [Compound I-207]
60 | 10 nM | CC(=O)N[C@@H](C)CO[C@H]1C[C@H](COc2ccc3nc(OCC(F)F)sc3n2)C1 [Compound I-169]
61 | 5 nM | CCOc1nc2cc(F)c(O[C@H]3CC[C@H](OC[C@H](C)NC(C)=O)CC3)nc2s1 [Compound I-186]
62 | 5 nM | CC(=O)N[C@@H](C)CO[C@H]1C[C@H](COc2ccc3nc(OCC4(C)CC4)sc3n2)C1 [Compound I-198]
